Reference: the OPERA property sets (Mansouri et al. 2018)

Details: for log10 BCF / log10 biotransformation half-life (days): fish

Row | Compound | boiling point [°C] | melting point [°C] | log10 vapour pressure (mmHg) | further results
1 | CCCCCCCC(C)CC (stereo not given) | 188 | -92.9 | – | –
2 | Cc1cc(CC(=O)O)n(C)c1C(=O)c1ccc(Cl)cc1 | – | 178 | – | –
3 | Brc1cccc2c1Oc1ccccc1O2 | – | 104 | -4.58 | –
4 | O=[N+]([O-])c1ccc2c(c1)CCN2 | – | 93 | – | –
5 | CCCCNC(=O)c1ccc2cc(O)c(O)cc2c1 | – | 194 | – | –
6 | CCSCCO | 184 | -100 | – | –
7 | C=CCCCCCCCCC(=O)O | 275 | 24.5 | -3.03 | –
8 | C[C@H]1CC[C@@H]2[C@H](C1)C2(C)C | 169 | – | – | –
9 | O=C1c2ccccc2C(=O)c2cc(O)ccc21 | – | 306 | -10.2 | –
10 | O=C(O)c1ccc(Cl)c([N+](=O)[O-])c1 | – | 183 | – | –
11 | CCN1C(=O)c2ccccc2C1=O | 286 | 79 | – | –
12 | CCCC#CCCCC | 152 | – | – | –
13 | c1ccc(OCc2ccc(CCCN3CCOCC3)cc2)cc1 | – | 52.5 | – | –
14 | Cc1ccccc1CCO | 244 | 2 | – | –
15 | CCCC(O)CO (stereo not given) | 206 | 104 | – | –
16 | Clc1cc2c(cc1Cl)Oc1cc(Br)c(Br)cc1O2 | – | 316 | -8.33 | –
17 | ClCBr | 68 | -87.9 | 2.15 | ready biodegradability: not readily biodegradable; log10 BCF: 0.6; log10 biotransformation half-life (days): -0.74
18 | COC1CCCCC1 | 133 | -74.4 | – | –
19 | c1ccc2c(c1)ccc1cc3c(ccc4ccccc43)cc12 | 524 | 270 | -9.02 | log10 Koc (L/kg): 6.22; log10 biodegradation half-life (days): 2.62; ready biodegradability: not readily biodegradable; log10 biotransformation half-life (days): 0.21

Row | Compound | boiling point [°C] | melting point [°C] | log10 vapour pressure (mmHg) | further results
20 | CN(C)C(=O)Nc1cc(C(C)(C)C)on1 | – | 120 | -6.42 | log10 Koc (L/kg): 2.47; ready biodegradability: readily biodegradable
21 | NS(=O)(=O)c1ccc(SCCCCO)c(F)c1 | – | 104 | – | –
22 | CCCc1ccccc1O | 220 | 7 | -1.05 | –
23 | CCC(C)=C(C)C(C)=O | 158 | – | – | –
24 | CCCCON=O | 78 | – | – | –
25 | CCCCCCCCCC=CC(=O)O | – | 17.1 | – | –
26 | CCCCCCCCCCCCCCCCCCCCCCCCCCCCCCC | 458 | 67.9 | -10.9 | log10 biodegradation half-life (days): 2.44
27 | CCOC(=O)C1(c2ccccc2)CCN(CCc2ccc(N)cc2)CC1 | – | 83 | – | –
28 | CCOC=C(C#N)C#N | – | 66 | – | –
29 | CCC(C)CCBr (stereo not given) | 148 | – | – | –
30 | Sc1ncc[nH]1 | – | 230 | – | –
31 | COC(C)OC | 64.5 | -113 | 2.23 | –
32 | CC(C)CCCC(C)(C)C | 149 | -105 | – | –
33 | Cc1ccc(/C(=C\CN2CCCC2)c2ccccn2)cc1 | – | 60 | – | –
34 | CNC(=O)/C=C(\C)OP(=O)(OC)OC | – | 55 | -5.66 | log10 Koc (L/kg): 0
35 | COc1cccc(O)c1O | – | 42.8 | – | –
36 | CC1=C[C@H](O)CC(C)(C)[C@H]1/C=C/C(C)=C/C=C/C(C)=C/C=C/C=C(C)/C=C/C=C(C)/C=C/C1=C(C)C[C@@H](O)CC1(C)C | – | 196 | – | –
37 | S=C(SSSSC(=S)N1CCCCC1)N1CCCCC1 | – | – | – | ready biodegradability: not readily biodegradable; log10 BCF: 1.23
38 | CCCCOC(=O)C(=O)[C@H]1[C@H](C)C[C@H]2[C@@H]3C[C@H](F)C4=CC(=O)C=C[C@]4(C)[C@H]3[C@@H](O)C[C@@]21C | – | 195 | – | –

Row | Compound | boiling point [°C] | melting point [°C] | log10 vapour pressure (mmHg) | further results
39 | CC1=CCCC(=O)C1 | 201 | -21 | – | –
40 | CC(O)CCCCO (stereo not given) | 237 | – | – | –
41 | COP(=O)(OC)OC | 197 | -46 | -0.0706 | log10 Henry constant (atm·m³/mol): -8.14; ready biodegradability: not readily biodegradable; log10 BCF: 0.15
42 | CCc1c(C)cccc1C | 190 | -16.2 | -0.132 | –
43 | CC(N)Cc1ccc(O)cc1 (stereo not given) | – | 126 | – | –
44 | Fc1cccc(Br)c1 | 150 | – | – | –
45 | CCn1ccc(NS(=O)(=O)c2ccc(N)cc2)nc1=O | – | 166 | – | –
46 | Oc1cc(Cl)cc(Cl)c1Cl | – | 62 | -1.66 | log10 Koc (L/kg): 3.61
47 | Cc1cc(C)c(O)c(C(C)(C)C)c1 | 249 | 22.3 | -1.35 | ready biodegradability: not readily biodegradable
48 | ClCC1CO1 (stereo not given) | 117 | -41.6 | 1.22 | log10 Koc (L/kg): 1; ready biodegradability: not readily biodegradable
49 | CCCCOC(=O)COC(=O)c1ccccc1C(=O)OCCCC | – | – | – | log10 Koc (L/kg): 3.7; ready biodegradability: readily biodegradable
50 | C=CC(CC)c1ccccc1 (stereo not given) | 192 | – | – | –
51 | CCC(C)C(O)C(C)CC (stereo not given) | 186 | – | – | –
52 | CCCCOC(=O)CCC(=O)OCCCC | 274 | -29.2 | – | –
53 | CCOP(=S)(OCC)Oc1ccc2c(C)c(Cl)c(=O)oc2c1 | – | 93 | -7.01 | –
54 | CNC(=O)Oc1cccc2c1OC(C)(C)C2 | – | 151 | -5.31 | log10 Koc (L/kg): 1.75
55 | CC(C)(C)c1cc(O)ccc1O | 273 | 128 | – | –
56 | CC(=O)Oc1ccc(C(=O)O)cc1 | – | 192 | – | –
